Assay results reported in patent US11654136B2, “Phosphoinositide 3-kinase inhibitor with a zinc binding moiety” (Curis, Inc., priority 2011, dated 2023).

Columns and labels:
[1] = tested on: HDACs (HeLa cell nuclear extracts); assay: HDAC activity assay (Biomol Color de Lys); type: biochemical
Method: HDAC inhibitory activity was assessed using the Biomol Color de Lys system (AK-500, Biomol, Plymouth Meeting, Pa.). Briefly, HeLa cell nuclear extracts were used as a source of HDACs. Different concentrations of test compounds were serially diluted in dimethylsulfoxide (DMSO) and added to HeLa cell nuclear extracts in the presence of a colorimetric artificial substrate. Final assay condition contained 50 mM Tris/C1, pH 8.0, 137 mM NaCl, 2.7 mM KCl and 1 mM MgCl2. Reactions were carried in room temperature (25° C.) for 1 hour before addition of developer for termination. Relative enzyme activity was measured in the WALLAC Victor II 1420 microplate reader as fluorescence intensity (excitation: 350-380 nm; emission: 440-460 nm). Data were analyzed using GraphPad Prism (v4.0a) with a sigmoidal dose response curve fitting for IC50 calculation.

HCT116 = assay: Cell proliferation assay HCT116; type: cell-based; conditions: Homo sapiens, HCT-116, Colon, 72 hours, read-out: IC50 antiproliferative activity
Method: (§1) Growth inhibition was accessed by adenosine triphosphate (ATP) content assay using Promega CellTiter-Glo kit. Promega CellTiter-Glo kit is an ATP monitoring system based on firefly luciferase. Briefly, 16 μl of mammalian cell lysis and substrate solution was added to 84 µl of culture medium per well to lyse the cells and stabilize the ATP. The mixture was shaken and incubated for 30 minutes and subsequently the luminescence was measured. IC50 values were calculated using PRISM software (GraphPad Software) with sigmoidal dose-response curve fitting.

H292 = assay: Cell proliferation assay H292; type: cell-based; conditions: Homo sapiens, NCI-H292, NSCLC, 72 hours, read-out: IC50 antiproliferative activity
Method: as §1

A549 = assay: Cell proliferation assay A549; type: cell-based; conditions: Homo sapiens, NSCLC, 72 hours, read-out: IC50 antiproliferative activity
Method: as §1

HCC1806 = assay: Cell proliferation assay HCC1806; type: cell-based; conditions: Homo sapiens, Breast, 72 hours, read-out: IC50 antiproliferative activity
Method: as §1

MDA-MB-231 = assay: Cell proliferation assay MDA-MB-231; type: cell-based; conditions: Homo sapiens, Breast, 72 hours, read-out: IC50 antiproliferative activity
Method: as §1

UACC-893 = assay: Cell proliferation assay UACC-893; type: cell-based; conditions: Homo sapiens, Breast, 72 hours, read-out: IC50 antiproliferative activity
Method: as §1

MDA-MB-453 = assay: Cell proliferation assay MDA-MB-453; type: cell-based; conditions: Homo sapiens, Breast, 72 hours, read-out: IC50 antiproliferative activity
Method: as §1

T47D = assay: Cell proliferation assay T47D; type: cell-based; conditions: Homo sapiens, Breast, 72 hours, read-out: IC50 antiproliferative activity
Method: as §1

ZR-75-1 = assay: Cell proliferation assay ZR-75-1; type: cell-based; conditions: Homo sapiens, Breast, 72 hours, read-out: IC50 antiproliferative activity
Method: as §1

MOLT-4 = assay: Cell proliferation assay MOLT-4; type: cell-based; conditions: Homo sapiens, ALL, 72 hours, read-out: IC50 antiproliferative activity
Method: as §1

Raji = assay: Cell proliferation assay Raji; type: cell-based; conditions: Homo sapiens, B-Cell Lymphoma, 72 hours, read-out: IC50 antiproliferative activity
Method: as §1

HH = assay: Cell proliferation assay HH; type: cell-based; conditions: Homo sapiens, T-Cell Lymphoma, 72 hours, read-out: IC50 antiproliferative activity
Method: as §1

ARH77 = assay: Cell proliferation assay ARH77; type: cell-based; conditions: Homo sapiens, ARH-77, Multiple Myeloma, 72 hours, read-out: IC50 antiproliferative activity
Method: as §1

[2] = Pharmacokinetics in nude mice bearing H2122 tumors; type: in vivo; conditions: PO 50 mg/kg; for Cmax / bioavailability: mouse
Method: Nude mice bearing H2122 (human non-small cell lung cancer cell line) xenograft tumors were used for pharmacokinetics studies. […] At various time points following compound administration, three mice per time point were euthanized with CO2, and blood and tumor tissues were collected. Blood was collected into tubes containing sodium heparin. The plasma was separated via centrifugation. Plasma and tissues were stored at −80° C. for later analysis. A PE Sciex API-3000 LC-MS/MS system (Applied Biosystems, Inc., Foster City, Calif.) was used to analyze compound concentrations in plasma and tumor tissues.

[3] = tested on: H2122 (human NSCLC cell line) xenograft tumors; assay: H2122 xenograft tumor model; type: in vivo, nude mice
Method: (§2) SU-DHL4 (diffuse large B-cell lymphoma cell line), H2122 (human NSCLC cell line), Daudi (non-Hodgkin's lymphoma cell line), and OPM2 (multiple myeloma tumor cell line) cells were implanted into either nude or Scid (severe […] immune-deficient) mice. […]. […] The control groups were treated with vehicle using the same dosing schedule as the corresponding active group.
(§3) In another study, the Daudi tumor group was dosed at 50 mg/Kg twice a day for five days per week. […] The SU-DHL4 tumor group was dosed at 100 mg/Kg orally or 50 mg/Kg intravenously.
(§4) Tumors were measured during the study period with an electronic caliper, and body weights were measured twice a week. The following formula was used to calculate the tumor volume: […] Percentage of tumor volume change was used to describe compound activity over the treatment period.

[4] = Daudi xenograft tumor model; type: in vivo; conditions: Scid, mouse, in vivo; oral; Daudi model; read-out: maximum tolerated dose (MTD)
Method: as §2, §3, §4

[5] = tested on: Daudi (non-Hodgkin's lymphoma cell line) xenograft tumors; assay: Daudi xenograft tumor model; type: in vivo
Method: as §2, §3, §4

[6] = tested on: EGFR, HER2, HER3, and MET; assay: Western blot of receptor tyrosine kinases in H1975 and BT-474 cells; type: cell-based; conditions: H1975 NSCLC cells and BT-474 breast cancer cells; 16 h
Method: Cell extracts were prepared in the presence of SDS and 2-mercaptoethanol and resolved in polyacrylamide gels. Proteins were transferred to nitrocellulose filter and blotting was done using standard procedures with blocking solutions (Li-Cor Bioscience) containing the indicated primary antibody. Primary antibodies against p-EGFR, EGFR, p-HER2, HER2, p-HER3, HER3, p-MET, MET, p-bRaf, p-cRaf, pMEK, MEK, p-ERK, ERK and tubulin were purchased from Cell Signaling Technology. Secondary antibody conjugated with IRdye 680, 800CW were used and the signal was detected with Li-Cor Odyssey Imager.

glioblastoma xenografts = conditions: oral dosage; Folkes et al. 2008; cited from earlier work
[7] = Plasma, H2122 tumor-bearing nude mice

| SMILES | IC50 (HCT116) [nM] | IC50 (H292) [nM] | IC50 (A549) [nM] | IC50 (HCC1806) [nM] | IC50 (MDA-MB-231) [nM] | IC50 (UACC-893) [nM] | IC50 (MDA-MB-453) [nM] | IC50 (T47D) [nM] | IC50 (ZR-75-1) [nM] | IC50 (MOLT-4) [nM] | IC50 (Raji) [nM] | IC50 (HH) [nM] | IC50 (ARH77) [nM] | further results |
| --- | --- | --- | --- | --- | --- | --- | --- | --- | --- | --- | --- | --- | --- | --- |
| COc1ccc(-c2nc(N3CCOCC3)c3sc(CN(C)c4ncc(C(=O)NO)cn4)cc3n2)cn1 [Compound 1, N-hydroxy-2-(((2-(6-methoxypyridin-3-yl)-4-morpholinothieno[3,2-d]pyrimidin-6-yl)methyl)(methyl)amino)pyrimidine-5-carboxamide] | < 10 | < 10 | 10 to 100 | 10 to 100 | 10 to 100 | 10 to 100 | < 10 | 10 to 100 | 10 to 100 | < 10 | 10 to 100 | < 10 | < 10 | IC50 [1]: < 100 nM; Distribution between plasma and tumor tissue [2]: preferentially accumulates in tumor tissue; Area under the Curve [2, 7]: 478 ng/mL * hr; Half-life [2, 7]: 5.9 h; Area under the Curve ([2]; Tumor): 2126 ng/mL * hr; Half-life ([2]; Tumor): 10.1 h; Cmax ([2]; Tumor): 154 ng/mL; bioavailability ([2]; Tumor): 14.8%; Cmax [2, 7]: 186 ng/mL; bioavailability [2, 7]: 7.8%; Body weight ([3]; oral 75 mg/Kg twice a day, H2122 tumor-bearing nude mice): body weight loss; Tumor growth ([3]; oral 75 mg/kg twice a day, then 50 mg/Kg twice a day from Day-11, five days per week): efficacious; MTD [4]: 100 mg/kg; Tumor growth ([5]; oral 50 mg/Kg twice a day, five days per week): efficacious; Antitumor activity compared with GDC-0941, vorinostat and their combination ([5]; oral 100 mg/Kg, each treatment at its MTD): more efficacious than vorinostat, GDC-0941, or a combination of both; Tumor growth versus dose ([5]; oral 25, 50 or 100 mg/Kg five day per week): inhibited Daudi tumor growth in a dose-dependent manner; Levels of phosphorylated and total EGFR, HER2, HER3, and MET [6]: reduce the levels of phosphorylated and total receptor tyrosine kinases EGFR, HER2, HER3, and MET |
| CS(=O)(=O)N1CCN(Cc2cc3nc(-c4cccc5[nH]ncc45)nc(N4CCOCC4)c3s2)CC1 [GDC-0941, reference compound] | 1000 to 10000 | 1000 to 10000 | 1000 to 10000 | > 10000 | > 10000 | 1000 to 10000 | 100 to 1000 | > 10000 | 100 to 1000 | 100 to 1000 | > 10000 | 100 to 1000 | > 10000 | Tumor suppression (glioblastoma xenografts): tumor suppression |
